Measurements taken from patent publication US7045600B2, “Modification of collagenous materials and medical treatment, diagnosis and monitoring of fibrotic conditions” (Nederlandse Organisatie voor …, priority 1999, dated 2006).

Legend:
[1] = system: helical lysyl hydroxylase; settings: cited from earlier work
[2] = system: PLOD2B mRNA; test: PLOD2B mRNA levels by real-time PCR in minoxidil-treated human skin fibroblasts and myofibroblasts; assay type: cell-based; settings: 1 mM minoxidil, 41 hours, versus untreated (FIG. 8)
Description: To substantiate that minoxidil suppresses the expression of PLOD2, human skin fibroblasts and myofibroblasts were cultured in 25 cm^2 flasks in DMEM (Gibco) supplemented with 10% FBS in 5% CO2. At near confluency the fibroblasts and myofibroblasts were incubated for 41 hours in medium containing 1 mM minoxidil. Minoxidil was dissolved at room temperature in medium with 10% FBS for 8 hours which was filtered prior to use. As a control both cell types were incubated for 41 hours in medium without minoxidil. At the end of the incubation period, the cells were washed with PBS and lysed with 600 μl RLT-buffer (RNeasy kit, Qiagen). RNA was isolated following the manufacturers protocol and subsequently reverse transcribed into cDNA (first strand cDNA synthesis kit, Roche Molecular Biochemicals). The levels of PLOD2B mRNA in the untreated and minoxidil-treated cells were quantified using real-time PCR as described in example 8. […]
Real time PCR amplification of PLOD2 and β2-microglobulin was performed, using specific primers (PLOD2 forward primer: 5′ […] 3′ (SEQ ID NO:48) PLOD2 reverse primer: 5′ […] 3′ (SEQ ID NO:49)β2-microglobulin forward primer; 5′ […] 3 (SEQ ID NO:50)β32-microglobulin reverse primer 5′ […] 3′) (SEQ ID NO:51) and specific molecular beacons PLOD2: 5′ FAM-cgtgcg[…] […] Data was analysed using sequence detector V1.7 software.

[3] = system: lysyl hydroxylation level of the telopeptides (pyridinoline cross-links) in chondrocytes; test: Pyridinoline (HP and LP) cross-links in collagen from calf chondrocytes cultured in alginate beads with minoxidil; assay type: cell-based, calves; settings: culture period of 20–50 days
Description: Chondrocytes from the metacarpophalangeal joint of calves (12–14 months old, local slaughterhouse) were isolated by collagenase digestion: cartilage slices were minced and digested overnight at 37° C. in 0.14% (w/v) collagenase (Worthington CLS2) in Dulbecco's modified Eagle's medium (DMEM). After filtration of the suspension, cells were washed suspended in 1.2% (w/v) alginate (Keltone LVCR) in 0.9% NaCI at a density of 4×10^6 cells/ml, which was passed dropwise through a 22-gauge needle into 102 mM CaCl2. After 10 min of polymerization, beads were washed in 0.9% (w/v) NaCl (three times) and finally in complete medium: DMEM-Glutamax (Gibco BRL) supplemented with 100 U/ml of penicillin/streptomycin, 10% (v/v) foetal calf serum and 50 μg/ml ascorbic acid. The cells were cultured at 10 beads per 0.5 ml medium in a humid atmosphere of 5% CO2 in air at 37° C.; the medium was refreshed twice weekly. Minoxidil was dissolved in complete medium and added to the culture after 7 days of preculture under control conditions. Harvested beads were washed with 0.9% NaCl containing 10 mM CaCl2 and hydrolyzed in 900 μl 6 M HCl at 108° C. for 20–24 h. […] Based on hydroxyproline levels, amounts of collagen were calculated, assuming 300 hydroxyproline residues/triple helix. […] Crosslinks were expressed as amount of residues per collagen molecule.

[4] = system: PLOD2B mRNA; test: PLOD2B mRNA levels by real-time PCR in TGF-β-treated human skin fibroblasts; assay type: cell-based; settings: for increase of PLOD2B mRNA levels: human skin fibroblasts, 1, 5 or 10 nM, 50 hours, versus untreated (FIG. 9)
Description: Human skin fibroblasts were cultured in 25 cm^2 flasks in DMEM (Gibco) supplemented with 10% FBS in 5% CO2. At near confluency the fibroblasts and myofibroblasts were incubated for 50 hours in medium containing 1, 5 or 10 nM human recombinant TGF-β1, -β2 or -β3. As a control, human skin fibroblasts were incubated for 50 hours in medium without the addition of TGF-β. At the end of the incubation period, the cells were washed with PBS and lysed with 600 μl RLT-buffer (RNeasy kit, Qiagen). RNA was isolated following the manufacturers protocol and subsequently reverse transcribed into cDNA (first strand cDNA synthesis kit, Roche Molecular Biochemicals). The levels of PLOD2B mRNA in the untreated and TGF-β treated cells were quantified using real-time PCR as described in example 8.
RNA, obtained from cultured human skin fibroblasts and cultured human myofibroblast, was isolated using the RNeasy kit (Qiagen). To remove any genomic DNA in the RNA sample, a Dnase treatment was carried out, using RQ1 Rnase-free Dnase (Promega). RNA was then reverse transcripted into cDNA and subjected to real time PCR amplification.
Real time PCR amplification of PLOD2 and β2-microglobulin was performed, using specific primers (PLOD2 forward primer: 5′ […] 3′ (SEQ ID NO:48) PLOD2 reverse primer: 5′ […] 3′ (SEQ ID NO:49)β2-microglobulin forward primer; 5′ […] 3 (SEQ ID NO:50)β32-microglobulin reverse primer 5′ […] 3′) (SEQ ID NO:51) and specific molecular beacons PLOD2: 5′ FAM-cgtgcg[…] (SEQ ID NO:52) cgcacg-DABCYL 3 ′; β2-microglobulin: 5′HEX-cgtgc[…] (SEQ ID NO:53) gcacg-DABCYL 3′). PLOD2 was amplified in a multiplex PCR together with β2-microglobulin in a total reaction volume of 25μl, containing 1×PCR buffer (Applied Biosystems), 0.4 mM of each dNTP, 3.5 mM Mg^2+, 250 nM of each target primer, 100 nM of each primer for μ2microglobulin and 1 unit Amplitaq Gold polymerase (Applied Biosystems). PCR was performed in a ABI PRISM® 7700 Sequence Detection System and consisted of a 5 minute interval at 95° C., followed by 40 cycles of 95° C. for 30 seconds, 56° C. for 40 seconds and 72° C. for 30 seconds. Data was analysed using sequence detector V1.7 software.

## CCOC(=O)CC(SP(=O)(OC)OC)C(=O)OCC (stereo not shown) [malaoxon]
[1]
  helical lysyl hydroxylase inhibition: inhibit

## CCOC(=O)CC(SP(=S)(OC)OC)C(=O)OCC (stereo not shown) [malathion]
[1]
  helical lysyl hydroxylase inhibition: inhibit

## Nc1cc(N2CCCCC2)nc(N)[n+]1[O-] [minoxidil]
[2]; human myofibroblasts
  reduction of PLOD2B mRNA levels: about 15 fold
[2]; human skin fibroblasts
  reduction of PLOD2B mRNA levels: 4 fold
[3]; alginate beads cultured with 0.3 mM minoxidil
  amount of pyridinolines (HP and LP), mean: 0.38 residues/collagen molecule
[3]; alginate beads cultured with 1.0 mM or 2.0 mM minoxidil
  amount of pyridinolines (HP and LP), mean: around 0.15 residues/collagen molecule

## TGF-β
[4]; fibroblasts, TGF-β added to the culture medium
  expression of PLOD2B (FIG. 9 legend, in words): increased

## TGF-β1: human recombinant TGF-β1
[4]
  increase of PLOD2B mRNA levels: about 20 fold

B1: TGF-β3: human recombinant TGF-β3 (protein, UniProt P10600 301-412, looked up)
Transforming growth factor …: ALDTNYCFRNLEENCCVRPLYIDFRQDLGWKWVHEPKGYYANFCSGPCPYLRSADTTHSTVLGLYNTLNPEASASPCCVPQDLEPLTILYYVGRTPKVEQLSNMVVKSCKCS
[4]
  increase of PLOD2B mRNA levels: about 20 fold

B2: TGF-β2: human recombinant TGF-β2 (protein, UniProt P61812 303-414, looked up)
Transforming growth factor …: ALDAAYCFRNVQDNCCLRPLYIDFKRDLGWKWIHEPKGYNANFCAGACPYLWSSDTQHSRVLSLYNTINPEASASPCCVSQDLEPLTILYYIGKTPKIEQLSNMIVKSCKCS
[4]
  increase of PLOD2B mRNA levels: about 20 fold
